The structures appear in SMILES notation. Converted amounts (≈) assume the structure as drawn.

From patent US4551547A, “Biocidal 2-aryl-1, 3-cyclopentanedione enol ester compounds” (Union Carbide Corporation, priority 1983, dated 1985) come the findings set out here.

In assay [1] the test system is Corn. The assay can be described thus: Post-emergent herbicidal test, corn. It counts as in vivo. Also noted: key: 1: no perceptible injury; 2: intermediate degrees of injury; 3: intermediate degrees of injury; 4: intermediate degrees of injury; 5: the plant was dead. The settings on record: Table III; 2500 parts per million, after ten days. The protocol:
(§1) Suspensions of the test compounds were prepared by dissolving one gram of compound in 50 milliliters of acetone in which had been dissolved 0.1 gram (10 percent of the weight of compound) of an alkylphenoxyethanol sufactant, as an emulsifying or dispersing agent. The resulting solution was mixed into 160 milliliters of water to give roughly 200 milliliters of a suspension containing the compound in finely divided form. The thus prepared stock suspension contained 0.5 percent by weight of compound. The test concentrations employed in the tests described below were obtained by diluting the stock suspension with water. The test procedures were as follows:
(§2) Experiments were also conducted to determine the phytotoxicity of representative compositions with respect to healthy fresh plants. Solutions of the compounds were prepared as described above to provide a concentration of 2500 parts per million of the test compound. The test plants were sprayed in accordance with the procedure described above for the Mite Foliage Spray Test so as to deliver approximately 100 milliliters of test solutions to the leaves of each plant tested. The sprayed plants and controls were set aside for approximately one hour to allow the solutions to dry and were then placed in the greenhouse. After ten days the plants were visually inspected to determine the extent of foliage injury. A rating of 1 indicates no perceptible injury; 5 indicates the plant was dead and ratings of 2, 3 and 4 indicate intermediate degrees of injury based upon the number and extent to which leaves were injured.

The test system of assay [2] is Cotton. The assay can be described thus: Post-emergent herbicidal test, cotton. The class given is in vivo. Also noted: key: 1: no perceptible injury; 2: intermediate degrees of injury; 3: intermediate degrees of injury; 4: intermediate degrees of injury; 5: the plant was dead. As to conditions: Table III; 2500 parts per million, after ten days. As to the method: as §1, §2

For assay [3], the system named is two-spotted mite (adults and nymphal stages). The assay can be described thus: Mite Foliage Spray Test (adults and nymphs). The class given is in vivo, Tetranychus urticae (Koch). The settings on record: Tetranychus urticae, foliar; Table III; ppm required for a 50 percent kill of mites; read-out: Miticidal LD50, Adult. The protocol:
Suspensions of the test compounds were prepared by dissolving one gram of compound in 50 milliliters of acetone in which had been dissolved 0.1 gram (10 percent of the weight of compound) of an alkylphenoxyethanol sufactant, as an emulsifying or dispersing agent. The resulting solution was mixed into 160 milliliters of water to give roughly 200 milliliters of a suspension containing the compound in finely divided form. The thus prepared stock suspension contained 0.5 percent by weight of compound. The test concentrations employed in the tests described below were obtained by diluting the stock suspension with water. The test procedures were as follows: Adults and nymphal stages of the two-spotted mite (Tetranychus urticae (Koch)), reared on Tender-green beam plants at 80±5° F. and 50±5 percent relative humidity, were the tests organisms. Infested leaves from a stock culture were placed of the primary leaves of two bean plants six to eight inches in height, growing in a two-and-a-half inch clay pot. 150-200 Mites, a sufficient number for testing, transferred from the excised leaves to the fresh plants in a period of twenty-four hours. Following the twenty-four hour transfer period, the excised leaves were removed from the infested plants. The test compounds were formulated by diluting the stock suspension with water to provide suspensions containing the desired amount of test compound per million parts of final formulation. The potted plants (one pot per compound) were placed on a revolving turntable and sprayed with 100-110 milliliters of tests compound formulation by use of a DeVilbis spray gun set at 40 psi, air pressure. This application, which lasted 30 seconds, was sufficient to wet the plants to run-off. As a control, 100-110 milliliters of a water solution containing acetone and emulsifier in the same concentrations as the test compound formulation, but containing no test compound, were also sprayed on infested plants. The sprayed plants were held at 80±5° F. and 50±5 percent relative humidity for four days, after which, a mortality count of motile forms was made on the leaves of the test plants. Any individual which was capable of locomotion upon prodding was considered living. In these tests the pesticidal activity of the compounds against mites and mite eggs was rated as follows: Tests were conducted in accordance with the procedures given at pages 17 to 21 supra. The results are expressed in the same manner as used in Table II, except with respect to miticidal activity. For mite adult and mite egg comparison purposes, results are given in parts per million (ppm) required for a 50 percent kill of mites or eggs, respectively.

Assay [4] has as its system Perennial rye grass. The assay can be described thus: Preliminary herbicide seed germination test (pre-emergent), perennial rye grass. The settings on record: Table III; ten to twelve days after application. Also noted: key: 5: no seedling emerged; 4: few seedlings emerged and/or very severe stunting; 3: moderate reduction in stand and/or moderate stunting.; 2: very slight reduction in stand and/or slight stunting; 1: no injury, seedlings appear no different with respect to stand or growth than untreated controls. It counts as in vivo, Solium perenne. The protocol:
as §1
The following seeds were used in this test:
Perennial rye grass--Solium perenne
Two […] mixtures were prepared as follows:
Each of the above mixtures was rolled separately in 5 gallon containers for approximately one-half hour on ball mill to insure uniform mixing of seeds and soil. For each compound four 3-inch pots were filled with soil to within 11/2 inches of top of pots. To two of these pots were added 70 cc. of Mixture I. To the remaining 2 pots were added 70 cc. of Mixture II. The seed-soil mixture was tamped firmly, and the pots were removed to the greenhouse and watered lightly. About 2 hours after planting, 25 milliliters of the test formulation were added to one pot containing Mixture I and one pot containing Mixture II. An equal volume of a water solution containing acetone and an emulsifier in the same concentration as the herbicidal mixture but without the candidate herbicide was also added to each of the soil-seed mixtures. These pots are used as check or control units. The test compounds were formulated by diluting the stock suspension with water to obtain the desired concentration of the compound in parts per million of the final formulation. Each compound was tested at the same concentration. […] Ratings were made according to the following designations: […]

Regarding `CCCCC(CC)C(=O)OC1=C(c2ccccc2C)C(=O)C2CCCCC12` (stereo not shown) [drawing 22], the “Post Emergent Herbicidal, Corn” value in assay [1] was 5. For the same molecule, the “Post Emergent Herbicidal, Cotton” value in assay [2] was found to be 2. The LC50 in assay [3] came to 7 µg/mL (≈ 19 µM). Besides, in assay [4], the “Pre-emergent Herbicidal, Rye” value was determined as 3.
